Laboratory results reported in patent publication US20060194856A1, “Use of atii antagonist for the treatment or prevention of metabolic syndrome” (ASTRAZENECA AB, priority 2003, published 2006).
Where “and” joins values, the source holds several entries; their conditions need not be identical. Equal values may be shown once.

Columns and labels:
[1] = Double-blind randomised clinical study: sitting blood pressure and heart rate; assay type: in vivo, patients; details: for patients who attained a blood pressure <140/<90 mm Hg: after one year; for SBP, mean change / DBP, mean change / Heart rate, mean change: sitting, mean (SD)
Procedure: (§1) A clinical study was performed. It was a study with a double-blind, randomised, controlled, parallel group design.
For inclusion, sitting blood pressure should be in the range of 140-179 and/or 90-104 mm Hg (mean of two measurements according to standardised procedures [1999 World Health Organization (WHO)—International Society of Hypertension Guidelines for the Management of Hypertension. Journal of Hypertension 1999; 17; 151-83] and at two visits) on placebo treatment and after the patients had been subjected to non-pharmacological treatment, as recommended [The Swedish Council on Technology Assessment in Health Care (SBU). Moderately elevated blood pressure. J Intern Med 1995; 238(Suppl 737): S1-S128; 1999 World Health Organization (WHO)—International Society of Hypertension Guidelines for the Management of Hypertension. Journal of Hypertension 1999; 17; 151-83] for one month or longer. Since the non-pharmacological intervention had been introduced before the start of the study and then maintained, its effect on metabolic variables during the study was minimal.
(§2) After four weeks of single-blind treatment with placebo, the patients were randomised to double-blind treatment with either candesartan cilexetil 16 mg or hydrochlorothiazide 25 mg and followed for one year. If sitting systolic or diastolic blood pressure was above target pressure (<130/<85 mmHg, for patients below 65 years, or <140/<90 mmHg, if 65 years or older) [1999 World Health Organization (WHO)—International Society of Hypertension Guidelines for the Management of Hypertension. Journal of Hypertension 1999; 17; 151-83] at any visit during the treatment period, double-blind treatment with felodipine extended-release 2.5-5.0 mg was added to the candesartan group and atenolol 50-100 mg was added to the hydrochlorothiazide group. No further antihypertensive treatment was allowed. Two patients were withdrawn from the study, both in the candesartan cilexetil group, since their blood pressure exceeded the pre-specified safety level (≧180 and/or ≧105 mm Hg, mean of two recordings at different visits).
(§3) Efficacy variables were analysed using analysis of covariance (ANCOVA) with treatment and health centre as factors and baseline value as covariate. Difference in treatment effect was estimated with 95% confidence interval. To test difference between treatments in change of biochemistry variables the Wilcoxon Rank Sum test was used. […] In this approach all randomised patients who had completed the study and had taken at least one dose of study drug were included.

[2] = Clinical study: fasting serum insulin and plasma glucose; assay type: in vivo, patients; details: for P-glucose, At 12 months / S-insulin, At 12 months / S-insulin/P-glucose, At 12 months: at 12 months of treatment; for P-glucose, At 12 months / S-insulin, At 12 months / P-glucose, Baseline / S-insulin, Baseline: fasting; for P-glucose, At 12 months / S-insulin, At 12 months / S-insulin/P-glucose, At 12 months / P-glucose, Baseline / S-insulin, Baseline / S-insulin/P-glucose, Baseline / P-glucose, Mean change at 12 months / S-insulin, Mean change at 12 months / S-insulin/P-glucose, Mean change at 12 months: mean (SD); for P-glucose, Baseline / S-insulin, Baseline / S-insulin/P-glucose, Baseline: baseline (before randomised treatment); for P-glucose, Mean change at 12 months / S-insulin, Mean change at 12 months / S-insulin/P-glucose, Mean change at 12 months: change from baseline to 12 months; for Fasting levels of both serum insulin and plasma glucose during treatment: result in words, 12 months treatment
Procedure: The fasting plasma glucose level is defined as the concentration of glucose in the plasma of a subject after an overnight's fast. Patients were instructed not to eat breakfast on the morning of the follow-up visits.
as §1, §2
Analyses of plasma glucose were carried out at the Department of Clinical Chemistry, Umeå University Hospital. Plasma glucose was routinely analysed by Vitros 950 glucose oxidase method (Ortho Clinical Diagnostics).
as §3

[3] = Clinical study: plasma triglycerides; assay type: in vivo; details: individual patients of the candesartan cilexetil group with metabolic syndrome at baseline but not after 12 months
Procedure: as §1
After four weeks of single-blind treatment with placebo, the patients were randomised to double-blind treatment with either candesartan cilexetil 16 mg or hydrochlorothiazide 25 mg and followed for one year. If sitting systolic or diastolic blood pressure was above target pressure (<130/<85 mmHg, for patients below 65 years, or <140/<90 mmHg, if 65 years or older) [1999 World Health Organization (WHO)—International Society of Hypertension Guidelines for the Management of Hypertension. […]
Total plasma cholesterol, LDL-cholesterol, HDL-cholesterol and triglycerides were determined in all patients at randomisation (n=392), and in most patients after six months (n=354), and after 12 months (n=352). Total plasma cholesterol and triglycerides concentrations were determined enzymatically. HDL-cholesterol was measured after the precipitation of apolipoprotein B-containing lipoproteins in whole plasma by heparin-manganese chloride [Lipid Research Clinics Program: Manual of Laboratory Operations, Bethesda, Md.: National Institutes of Health, Vol 1. […] Their LDL cholesterol levels were not calculated.

[4] = Clinical study: metabolic syndrome diagnosed according to WHO criteria; assay type: in vivo, patients; details: n = 196 per group
Procedure: as §1, §2
The metabolic syndrome was diagnosed according to the following criteria [World Health Organization (WHO). Department of Noncommunicable Disease Surveillance. Geneva: WHO 1999 pp 1-59]: • 1. Fasting plasma glucose above 6.1 mmol/L • 2. Blood pressure above 140/90 mm Hg • 3. One or more of the following: • a. plasma triglycerides above 1.7 mmol/L and/or HDL below 0.9 mmol/L (men), below 1.0 mmol/L (women) • b. Body mass index above 30 kg/m^2 Statistical Analyses

[5] = at 6 months, hypertensive patients, candesartan cilexetil 16 mg (+ felodipine if needed) or HCTZ 25 mg (+ atenolol if needed)

| SMILES | patients who attained a blood pressure <140/<90 mm Hg [1] | SBP, mean change [1, 5] | DBP, mean change ([1]; at 6 months, same regimens) | Heart rate, mean change ([1]; at 6 months, same regimens) | DBP, mean change ([1]; at 12 months, same regimens) | Heart rate, mean change ([1]; at 12 months, same regimens) | SBP, mean change ([1]; at 12 months, same regimens) | P-glucose, At 12 months [2] | S-insulin, At 12 months [2] | S-insulin/P-glucose, At 12 months [2] | P-glucose, Baseline [2] | S-insulin, Baseline [2] | S-insulin/P-glucose, Baseline [2] | P-glucose, Mean change at 12 months [2] | S-insulin, Mean change at 12 months [2] | S-insulin/P-glucose, Mean change at 12 months [2] | Fasting levels of both serum insulin and plasma glucose during treatment [2] | patients suffering from the metabolic syndrome as defined by WHO ([4]; at base-line) | further results |
| --- | --- | --- | --- | --- | --- | --- | --- | --- | --- | --- | --- | --- | --- | --- | --- | --- | --- | --- | --- |
| CCOc1nc2cccc(C(=O)OC(C)OC(=O)OC3CCCCC3)c2n1Cc1ccc(-c2ccccc2-c2nn[nH]n2)cc1 (centres unmarked) [Candesartan cilexetil, candesartan cilexetil] | 65% | −20.9 (13.1) mm Hg | −12.8 (6.9) mm Hg | −2.1 (8.4) bpm | −13.0 (7.4) mm Hg | −2.2 (8.4) bpm | −21.0 (15.2) mm Hg | 5.10 (0.57) mmol/L | 8.96 (5.42) mlU/L | 1.76 (1.06) | 5.17 (0.58) mmol/L | 9.25 (7.90) mlU/L | 1.77 (1.38) | −0.06 (0.46) mmol/L | −0.30 (6.50) mlU/L | −0.00 (1.23) | unaffected | 13 patients | Fasting glucose, 12 months ([2]; individual patients 1-8 of the candesartan cilexetil group with metabolic syndrome at baseline but not after 12 months, after 12 months): 5.5 mmol/L and 5.7 mmol/L (2×) and 5.6 mmol/L and 5.2 mmol/L and 6.0 mmol/L and 5.9 mmol/L; Fasting glucose, Baseline ([2]; individual patients 1-8 of the candesartan cilexetil group with metabolic syndrome at baseline but not after 12 months, baseline): 6.1 mmol/L and 6.5 mmol/L and 6.2 mmol/L (4×) and 6.4 mmol/L; Triglycerides, 12 months ([3]; after 12 months): 1.59 mmol/L and 1.44 mmol/L and 1.28 mmol/L; Triglycerides, Baseline ([3]; baseline): 2.15 mmol/L and 2.34 mmol/L and 2.65 mmol/L |
| NS(=O)(=O)c1cc2c(cc1Cl)NCNS2(=O)=O [HCTZ, hydrochlorothiazide] | 62% | −23.9 (13.0) mm Hg | −13.9 (7.1) mm Hg | −6.8 (10.1) bpm | −12.9 (7.7) mm Hg | −7.3 (9.4) bpm | −22.8 (14.9) mm Hg | 5.42 (0.89) mmol/L | 11.00 (6.88) mlU/L | 2.03 (1.23) | 5.29 (0.98) mmol/L | 9.65 (6.09) mlU/L | 1.83 (1.10) | 0.13 (0.69) mmol/L | 1.35 (6.09) mlU/L | 0.20 (1.13) | increased | 12 patients | patients suffering from the metabolic syndrome as defined by WHO ([4]; at 12 months, p=0.007 between groups): 18 patients |
